Measured values: ChEMBL document CHEMBL1201862, “PubChem BioAssay data set” (2004)
Calls of active or inactive are those of the source.

Legend:
[1] = target: Mu-type opioid receptor (Homo sapiens, UniProt P35372); assay: SAR Analysis of Agonists of the MOR Receptor using an Image-Based Assay - Set 3. [Related pubchem assays (depositor defined):AID1777, AID1785, AID1786, AID1966, AID2133, AID2136, AID2284, AID2285, AID2352]; format: functional
[2] = target: T1, Kappa-type opioid receptor (Homo sapiens, UniProt P41145); assay: KOR agonist analogs, arrestin-GFP redistribution, SAR follow-up, imaging, image-based, set 3 (AID 488833); format: functional
[3] = target: Delta-type opioid receptor (Homo sapiens, UniProt P41143); assay: SAR Analysis of Agonists of the DOR Receptor using an Image-Based Assay - Set 3. [Related pubchem assays (depositor defined):AID1777, AID1786]; format: functional
[4] = target: T1, Kappa-type opioid receptor; assay: SAR analysis of small molecule agonists of the kappa opioid receptor via a luminescent beta-arrestin assay - Set 3. [Related pubchem assays (depositor defined):AID1777, AID1785, AID1786, AID1966, AID2133, AID2136, AID2284, AID2500]; format: functional
[5] = target: Sphingosine 1-phosphate receptor 4 (Homo sapiens, UniProt O95977); assay: Fluorescence dose response cell-based high throughput screening assay for agonists of the Sphingosine 1-Phosphate Receptor 4 (S1P4). [Related pubchem assays: 1509 (Primary screen.), 1523 (Confirmation screen in triplicates.)]; format: functional
[6] = target: Sphingosine 1-phosphate receptor 1 (Homo sapiens, UniProt P21453); assay: Fluorescence-based counterscreen assay for S1P4 agonists: Cell-based dose response high throughput screening assay to identify agonists of the Sphingosine 1-Phosphate Receptor 1 (S1P1). [Related pubchem assays (depositor defined):AID1509, AID1523, AID1801, AID463107, AID463118, AID463119, AID463122, AID463123, AID463129, AID463225, AID504400, AID504460]; format: functional
[7] = target: T2, Fatty acid synthase (Homo sapiens, UniProt P49327); assay: FAS thioesterase domain inhibitors, dose response, biochemical, kinetic fluorescence intensity (AID 624326); format: functional;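 further: rate of fluorescence rise from hydrolysis of a fluorogenic O-methyl fluorescein ester substrate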
[8] = target: T2, Fatty acid synthase; assay: FAS thioesterase domain inhibitors, dose response, biochemical, endpoint fluorescence intensity, uHTS hits (AID 624327); format: functional;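 further: fluorescence from hydrolysis of an O-methyl fluorescein acyl ester substrate by the enzyme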
[9] = test system: H9c2; assay: cells; format: functional, cell-based; conditions: Rattus norvegicus, H9c2, Myocardium;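 further: confirmatory concentration-response retest of ultra-high-throughput screening hits for modulation of myocardial damage; cell death induced by hydrogen peroxide oxidative stress; compound pretreatment for 60 min then peroxide exposure for 2 h; potency is for protecting the cells against peroxide damage rather than for killing them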
[10] = Late stage assay provider results from the probe development effort to identify inhibitors of Protein Phosphatase Methylesterase 1 (PME-1): luminescence-based […] dose response assay to determine cytotoxicity of inhibitor compounds. [Related pubchem assays (depositor defined):AID2130, AID2143, AID2171, AID2174, AID2177, AID2232, AID2233, AID2291, AID2363, AID2365, AID2366, AID2368, AID2369, AID2371, AID463124, AID463130, AID463131, AID463132, AID463146, AID463149] Panel member name: Serum-free Media; format: toxicity
[11] = Late stage assay provider results from the probe development effort to identify inhibitors of Protein Phosphatase Methylesterase 1 (PME-1): luminescence-based biochemical dose response assay to determine cytotoxicity of inhibitor compounds. [Related pubchem assays (depositor defined):AID2130, AID2143, AID2171, AID2174, AID2177, AID2232, AID2233, AID2291, AID2363, AID2365, AID2366, AID2368, AID2369, AID2371, AID463124, AID463130, AID463131, AID463132, AID463146, AID463149] Panel member name: Fetal Calf Serum; format: toxicity
[12] = decrease of PhoP-driven GFP reporter signal, S. Typhimurium, dose response, PhoP regulon inhibitor project, purified and synthesized compounds, set 2 (AID 2831); format: functional
[13] = target: T3, Tyrosine-protein phosphatase non-receptor type 22 (Homo sapiens, UniProt Q9Y2R2); format: functional
T3 sequence (Q9Y2R2 whole entry): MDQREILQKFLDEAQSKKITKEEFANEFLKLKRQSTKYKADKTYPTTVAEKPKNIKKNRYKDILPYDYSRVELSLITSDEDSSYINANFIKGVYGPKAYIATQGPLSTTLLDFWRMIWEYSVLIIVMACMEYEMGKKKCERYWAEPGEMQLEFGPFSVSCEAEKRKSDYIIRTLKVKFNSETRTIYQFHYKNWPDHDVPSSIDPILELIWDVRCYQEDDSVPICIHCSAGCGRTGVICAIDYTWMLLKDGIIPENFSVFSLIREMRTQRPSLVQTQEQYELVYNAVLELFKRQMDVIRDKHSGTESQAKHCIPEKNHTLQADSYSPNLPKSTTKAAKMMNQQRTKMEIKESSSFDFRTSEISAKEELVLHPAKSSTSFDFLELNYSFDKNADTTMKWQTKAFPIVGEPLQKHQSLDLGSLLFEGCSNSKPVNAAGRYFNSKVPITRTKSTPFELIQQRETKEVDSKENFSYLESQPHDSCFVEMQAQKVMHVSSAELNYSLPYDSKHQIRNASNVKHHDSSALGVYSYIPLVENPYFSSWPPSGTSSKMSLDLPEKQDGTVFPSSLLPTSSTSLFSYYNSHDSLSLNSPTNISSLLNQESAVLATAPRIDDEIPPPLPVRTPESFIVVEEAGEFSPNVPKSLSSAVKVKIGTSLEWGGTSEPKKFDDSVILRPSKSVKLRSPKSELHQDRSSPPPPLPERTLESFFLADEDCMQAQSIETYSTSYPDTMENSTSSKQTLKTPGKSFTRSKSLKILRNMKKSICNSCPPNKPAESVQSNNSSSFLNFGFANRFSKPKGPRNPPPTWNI

[14] = target: T4, Tyrosine-protein phosphatase non-receptor type 7 (Homo sapiens, UniProt P35236); format: functional
T4 sequence (P35236 whole entry): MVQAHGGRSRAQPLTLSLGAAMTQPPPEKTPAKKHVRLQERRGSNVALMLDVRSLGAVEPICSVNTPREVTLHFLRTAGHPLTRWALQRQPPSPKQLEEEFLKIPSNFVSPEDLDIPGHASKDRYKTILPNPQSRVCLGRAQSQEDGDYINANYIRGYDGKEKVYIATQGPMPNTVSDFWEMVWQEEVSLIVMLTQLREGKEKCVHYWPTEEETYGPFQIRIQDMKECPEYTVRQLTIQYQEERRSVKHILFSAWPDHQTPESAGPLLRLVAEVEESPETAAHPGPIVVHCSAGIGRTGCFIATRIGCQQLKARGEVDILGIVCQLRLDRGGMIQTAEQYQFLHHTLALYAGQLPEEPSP

[15] = target: T3, Tyrosine-protein phosphatase non-receptor type 22; format: functional; remark: listed apart in the source
[16] = target: T5, Cannabinoid receptor 2 (Homo sapiens, UniProt P34972); assay: SAR analysis of agonists of the Cannabinoid Receptor 2 using an Image-Based Assay. [Related pubchem assays (depositor defined):AID2013, AID2026]; format: functional
[17] = target: T6, Cannabinoid receptor 1 (Homo sapiens, UniProt P21554); assay: SAR analysis of antagonists of the Cannabinoid Receptor 1 using an Image-Based Assay - Set 2. [Related pubchem assays (depositor defined):AID2013, AID2026]; format: functional
[18] = target: T7, G-protein coupled receptor 55 (Homo sapiens, UniProt Q9Y2T6); assay: GPR55 antagonists blocking LPI-driven arrestin recruitment, primary screen, imaging, U2OS, beta-arrestin-GFP, LPI agonist (AID 2013); format: functional;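 further: antagonist potency measured as reduced agonist-driven arrestin aggregation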
[19] = target: T5, Cannabinoid receptor 2; assay: SAR analysis of antagonists of the Cannabinoid Receptor 2 using an Image-Based Assay. [Related pubchem assays (depositor defined):AID2013, AID2026]; format: functional
[20] = target: T6, Cannabinoid receptor 1; assay: SAR analysis of agonists of the Cannabinoid Receptor 1 using an Image-Based Assay - Set 2. [Related pubchem assays (depositor defined):AID2013, AID2026]; format: functional
[21] = target: T8, G-protein coupled receptor 35 (Homo sapiens, UniProt Q9HC97); assay: SAR analysis of Antagonists of the GPR35 Receptor using an Image-Based Assay - Set 3. [Related pubchem assays (depositor defined):AID2013, AID2026]; format: functional
[22] = target: T7, G-protein coupled receptor 55; assay: GPR55 antagonist potency of analogs, SAR follow-up, imaging, U2OS, beta-arrestin-GFP, LPI agonist, set 2 (AID 2820); format: functional
[23] = target: T8, G-protein coupled receptor 35; assay: SAR analysis of Agonists of the GPR35 Receptor using an Image-Based Assay - Set 2. [Related pubchem assays (depositor defined):AID2013, AID2026]; format: functional
[24] = target: Nucleotide-binding oligomerization domain-containing protein 1 (Homo sapiens, UniProt Q9Y239); assay: SAR analysis of compounds that inhibit NOD1 - Set 3. [Related pubchem assays (depositor defined):AID1566, AID1575, AID1578, AID1849, AID1852, AID2333, AID2335, AID2466]; format: functional
[25] = target: Tumor necrosis factor (Homo sapiens, UniProt P01375); assay: TNFa-triggered NF-kB activation inhibitors, SAR follow-up, cell-based, set 3 (AID 2801); format: functional
[26] = test system: HEK293; assay: SAR analysis of compounds that are cytotoxic to HEK293 - Set 3. [Related pubchem assays (depositor defined):AID1575, AID1578, AID1848, AID1849, AID2001, AID2333, AID2334, AID2335, AID2337, AID2469]; format: functional, cell-based; conditions: Homo sapiens
[27] = target: Nucleotide-binding oligomerization domain-containing protein 2 (Homo sapiens, UniProt Q9HC29); assay: NOD2 signaling inhibitors, analog potency, SAR follow-up, cell-based, set 3 (AID 2799); format: functional
[28] = target: T9, Carboxy-terminal domain RNA polymerase II polypeptide A small phosphatase 1 (Homo sapiens, UniProt Q9GZU7); assay: inhibitors of CTDSP1, concentration-response testing, biochemical assay, absorbance-based, actives from ultra-high-throughput screening (AID 540297); format: functional
T9 sequence (Q9GZU7 whole entry): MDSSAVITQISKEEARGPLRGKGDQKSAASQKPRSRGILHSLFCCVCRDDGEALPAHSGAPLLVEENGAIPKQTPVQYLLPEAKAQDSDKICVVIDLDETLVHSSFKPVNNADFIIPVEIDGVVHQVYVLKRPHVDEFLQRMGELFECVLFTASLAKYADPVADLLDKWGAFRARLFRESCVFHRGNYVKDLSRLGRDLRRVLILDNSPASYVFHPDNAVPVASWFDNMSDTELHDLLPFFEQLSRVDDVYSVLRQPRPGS

[29] = cytotoxicity in MIN6 insulinoma cells, dose response, cytotoxicity control, cell-based, mouse insulinoma (AID 2122); format: functional;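 further: confirmatory high-throughput counterscreen run to flag cytotoxic compounds; mouse MIN-6 beta cells carrying an insulin promoter eGFP reporter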
[30] = target: Ion channel NompC (Danio rerio, UniProt Q7T1G6); assay: Dose response cell-based high-throughput screening assay for agonists of the transient receptor potential channel N1 (TRPN1). [Related pubchem assays (depositor defined):AID1424, AID1448]; format: functional
[31] = insulin promoter down-regulators in MIN6 cells, imaging, high-content screening, mouse beta cells (AID 1628); format: functional
[32] = target: Mucolipin-3 (Homo sapiens, UniProt Q8TDD5); assay: Fluorescence counterscreen assay for […] agonists: dose response cell-based high-throughput screening assay to identify agonists of the transient receptor potential channel ML3 (TRPML3). [Related pubchem assays: 1424, 1448 ]; format: functional

T5 sequence (P34972 whole entry): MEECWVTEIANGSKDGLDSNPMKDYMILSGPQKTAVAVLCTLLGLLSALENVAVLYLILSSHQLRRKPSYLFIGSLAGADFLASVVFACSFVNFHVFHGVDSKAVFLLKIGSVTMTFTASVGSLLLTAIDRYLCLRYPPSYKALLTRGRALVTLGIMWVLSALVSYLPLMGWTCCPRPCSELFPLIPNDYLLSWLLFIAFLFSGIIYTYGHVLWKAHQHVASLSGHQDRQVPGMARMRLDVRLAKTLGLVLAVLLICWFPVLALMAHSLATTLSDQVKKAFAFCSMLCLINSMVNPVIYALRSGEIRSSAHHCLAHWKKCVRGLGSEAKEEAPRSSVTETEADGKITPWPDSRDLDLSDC
T8 sequence (Q9HC97 whole entry): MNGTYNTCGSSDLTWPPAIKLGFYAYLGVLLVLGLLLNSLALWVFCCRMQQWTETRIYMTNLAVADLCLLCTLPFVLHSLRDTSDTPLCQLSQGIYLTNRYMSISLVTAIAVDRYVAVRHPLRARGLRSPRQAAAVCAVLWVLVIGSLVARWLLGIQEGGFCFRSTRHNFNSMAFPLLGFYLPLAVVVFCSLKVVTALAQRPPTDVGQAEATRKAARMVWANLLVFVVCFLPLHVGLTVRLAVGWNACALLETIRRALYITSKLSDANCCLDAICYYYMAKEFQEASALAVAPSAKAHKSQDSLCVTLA
T1 sequence (P41145 whole entry): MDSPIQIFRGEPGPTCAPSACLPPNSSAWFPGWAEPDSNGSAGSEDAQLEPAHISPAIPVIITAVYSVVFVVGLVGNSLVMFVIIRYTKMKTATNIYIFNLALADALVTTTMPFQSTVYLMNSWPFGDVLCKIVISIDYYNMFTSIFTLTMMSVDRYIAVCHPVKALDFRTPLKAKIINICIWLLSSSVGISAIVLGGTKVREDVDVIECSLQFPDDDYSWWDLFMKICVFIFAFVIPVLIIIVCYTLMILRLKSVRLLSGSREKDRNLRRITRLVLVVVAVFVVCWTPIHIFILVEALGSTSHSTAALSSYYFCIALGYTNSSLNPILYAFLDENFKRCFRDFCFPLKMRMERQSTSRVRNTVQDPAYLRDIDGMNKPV
T6 sequence (P21554 whole entry): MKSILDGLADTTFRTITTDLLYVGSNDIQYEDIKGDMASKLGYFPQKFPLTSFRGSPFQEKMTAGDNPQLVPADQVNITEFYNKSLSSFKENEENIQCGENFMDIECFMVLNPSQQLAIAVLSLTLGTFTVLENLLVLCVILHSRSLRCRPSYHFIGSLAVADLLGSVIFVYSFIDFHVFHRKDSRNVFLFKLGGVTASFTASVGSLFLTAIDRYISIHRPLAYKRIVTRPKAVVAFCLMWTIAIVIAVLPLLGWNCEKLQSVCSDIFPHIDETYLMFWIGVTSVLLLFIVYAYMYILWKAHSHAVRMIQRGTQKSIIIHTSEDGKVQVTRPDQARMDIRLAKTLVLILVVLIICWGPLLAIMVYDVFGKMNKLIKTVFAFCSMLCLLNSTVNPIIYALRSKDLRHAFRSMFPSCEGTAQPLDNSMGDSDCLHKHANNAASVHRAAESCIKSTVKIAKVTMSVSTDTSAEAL
T2 sequence (P49327 whole entry, the tested form may be a part): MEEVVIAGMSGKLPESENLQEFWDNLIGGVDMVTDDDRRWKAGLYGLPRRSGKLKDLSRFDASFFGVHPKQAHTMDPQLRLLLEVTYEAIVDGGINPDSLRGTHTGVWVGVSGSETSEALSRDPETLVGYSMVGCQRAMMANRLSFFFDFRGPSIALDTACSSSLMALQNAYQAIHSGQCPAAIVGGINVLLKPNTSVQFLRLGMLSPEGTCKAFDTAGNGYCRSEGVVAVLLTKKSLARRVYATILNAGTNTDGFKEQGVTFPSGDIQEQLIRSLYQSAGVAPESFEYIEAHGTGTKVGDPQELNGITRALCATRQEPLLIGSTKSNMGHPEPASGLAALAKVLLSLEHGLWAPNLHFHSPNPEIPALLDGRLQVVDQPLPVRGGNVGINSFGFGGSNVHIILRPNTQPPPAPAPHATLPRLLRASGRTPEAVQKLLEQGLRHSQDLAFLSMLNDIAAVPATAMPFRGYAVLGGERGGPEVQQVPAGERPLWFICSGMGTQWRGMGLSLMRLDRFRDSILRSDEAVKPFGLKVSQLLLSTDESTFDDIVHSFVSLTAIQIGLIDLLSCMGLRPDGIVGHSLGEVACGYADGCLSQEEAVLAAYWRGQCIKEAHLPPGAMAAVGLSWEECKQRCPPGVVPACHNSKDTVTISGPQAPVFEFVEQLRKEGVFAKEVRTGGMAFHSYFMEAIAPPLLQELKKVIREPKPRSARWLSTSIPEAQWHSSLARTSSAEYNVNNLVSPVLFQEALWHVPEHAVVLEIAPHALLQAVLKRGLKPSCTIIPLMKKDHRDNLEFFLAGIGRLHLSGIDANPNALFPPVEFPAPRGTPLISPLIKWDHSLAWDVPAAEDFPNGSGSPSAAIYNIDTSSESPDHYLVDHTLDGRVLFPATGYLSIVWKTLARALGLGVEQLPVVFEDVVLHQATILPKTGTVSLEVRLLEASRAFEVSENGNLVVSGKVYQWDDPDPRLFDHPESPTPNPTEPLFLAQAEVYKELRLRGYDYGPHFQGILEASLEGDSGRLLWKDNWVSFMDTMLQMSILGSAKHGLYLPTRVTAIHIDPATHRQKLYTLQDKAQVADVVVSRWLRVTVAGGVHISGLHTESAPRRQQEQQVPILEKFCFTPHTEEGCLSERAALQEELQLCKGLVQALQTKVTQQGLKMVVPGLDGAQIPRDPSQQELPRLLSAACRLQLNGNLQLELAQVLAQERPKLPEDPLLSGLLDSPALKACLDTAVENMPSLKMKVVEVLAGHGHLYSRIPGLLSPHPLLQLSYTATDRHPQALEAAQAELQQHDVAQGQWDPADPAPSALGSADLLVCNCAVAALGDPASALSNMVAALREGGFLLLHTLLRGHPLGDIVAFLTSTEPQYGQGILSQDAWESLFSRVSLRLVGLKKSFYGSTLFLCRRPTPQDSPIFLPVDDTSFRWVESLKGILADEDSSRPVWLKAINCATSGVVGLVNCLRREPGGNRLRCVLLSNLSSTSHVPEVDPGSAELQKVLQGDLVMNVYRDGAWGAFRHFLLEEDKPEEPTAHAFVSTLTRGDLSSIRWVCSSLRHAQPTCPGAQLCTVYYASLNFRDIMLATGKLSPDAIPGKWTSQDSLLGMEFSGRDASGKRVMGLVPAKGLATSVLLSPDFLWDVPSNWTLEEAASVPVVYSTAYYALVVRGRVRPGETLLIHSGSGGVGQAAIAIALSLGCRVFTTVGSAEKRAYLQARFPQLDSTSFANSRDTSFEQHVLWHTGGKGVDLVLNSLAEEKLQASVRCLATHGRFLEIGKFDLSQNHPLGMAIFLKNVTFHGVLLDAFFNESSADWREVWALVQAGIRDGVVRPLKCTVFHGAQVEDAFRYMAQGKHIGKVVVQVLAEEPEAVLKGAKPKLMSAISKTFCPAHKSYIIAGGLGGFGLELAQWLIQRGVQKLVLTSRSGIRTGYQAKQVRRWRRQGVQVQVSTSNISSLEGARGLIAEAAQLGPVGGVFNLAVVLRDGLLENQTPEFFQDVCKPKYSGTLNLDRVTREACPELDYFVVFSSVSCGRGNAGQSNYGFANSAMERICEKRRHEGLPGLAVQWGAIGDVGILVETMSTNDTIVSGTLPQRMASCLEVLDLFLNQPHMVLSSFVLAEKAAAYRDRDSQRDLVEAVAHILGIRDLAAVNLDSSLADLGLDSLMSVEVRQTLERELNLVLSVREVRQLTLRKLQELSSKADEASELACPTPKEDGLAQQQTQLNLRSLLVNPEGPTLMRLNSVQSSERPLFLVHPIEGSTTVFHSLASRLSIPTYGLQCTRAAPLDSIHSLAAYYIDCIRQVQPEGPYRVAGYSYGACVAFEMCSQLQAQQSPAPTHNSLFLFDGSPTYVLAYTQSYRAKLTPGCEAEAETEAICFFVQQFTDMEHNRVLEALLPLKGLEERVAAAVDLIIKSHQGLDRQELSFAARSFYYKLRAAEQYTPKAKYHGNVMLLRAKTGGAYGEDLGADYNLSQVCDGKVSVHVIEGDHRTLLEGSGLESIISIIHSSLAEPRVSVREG
T7 sequence (Q9Y2T6 whole entry): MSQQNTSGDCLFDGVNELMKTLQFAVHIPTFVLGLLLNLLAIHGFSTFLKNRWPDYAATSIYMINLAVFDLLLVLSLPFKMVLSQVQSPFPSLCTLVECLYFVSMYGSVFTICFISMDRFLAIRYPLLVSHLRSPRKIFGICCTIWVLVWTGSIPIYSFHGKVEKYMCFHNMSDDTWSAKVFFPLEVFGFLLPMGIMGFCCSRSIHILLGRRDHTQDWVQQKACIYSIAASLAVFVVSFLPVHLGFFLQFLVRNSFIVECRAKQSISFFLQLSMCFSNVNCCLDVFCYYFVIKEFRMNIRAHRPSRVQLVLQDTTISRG
Sphingosine 1-phosphate receptor 1, sequence (P21453 whole entry, the tested form may be a part): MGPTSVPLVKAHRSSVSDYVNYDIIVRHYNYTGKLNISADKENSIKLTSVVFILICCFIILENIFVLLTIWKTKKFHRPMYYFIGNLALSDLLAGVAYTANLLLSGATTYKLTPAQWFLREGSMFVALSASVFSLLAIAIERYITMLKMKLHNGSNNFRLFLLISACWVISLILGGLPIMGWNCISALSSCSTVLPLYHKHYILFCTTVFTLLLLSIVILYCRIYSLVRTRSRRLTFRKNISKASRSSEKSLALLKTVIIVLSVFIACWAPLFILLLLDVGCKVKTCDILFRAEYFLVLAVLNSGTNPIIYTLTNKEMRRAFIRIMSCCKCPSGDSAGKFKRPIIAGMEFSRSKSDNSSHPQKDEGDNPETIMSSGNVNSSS
Tumor necrosis factor, sequence (P01375 whole entry): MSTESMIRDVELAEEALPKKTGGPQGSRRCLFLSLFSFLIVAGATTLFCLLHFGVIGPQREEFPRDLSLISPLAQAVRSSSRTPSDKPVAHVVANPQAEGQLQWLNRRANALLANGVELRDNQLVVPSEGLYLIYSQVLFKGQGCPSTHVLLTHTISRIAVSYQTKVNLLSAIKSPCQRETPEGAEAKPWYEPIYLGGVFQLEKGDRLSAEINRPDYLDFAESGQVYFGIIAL

CC(C)c1ccc(CSc2nnc(-c3ccccn3)n2Cc2cccs2)cc1
EC50 [1]: > 32 µM (inactive)
EC50 [2]: 2.17 µM (active)
EC50 [3]: > 32 µM (inactive)
EC50 [4]: 3.66 µM (active)

CCOC(=O)c1c(-n2c(C)cc(C=O)c2C)sc2c1CCCC2
EC50 [5]: > 16.6 µM (not active)
EC50 [6]: > 49.8 µM (inactive)

COC(=O)N1C(=O)[C@](c2ccccc2)(C2CCCCC2)N1C(=O)OC
IC50 [7]: 968 nM (active)
IC50 [8]: 929 nM (active)
IC50 [9]: 25.5 µM (active)
CC50 [10]: > 10 µM (inactive)
CC50 [11]: > 10 µM (inactive)

COc1ccc(CNC(=S)Nc2ccncc2)cc1
IC50 [12]: > 150 µM (active)

Cc1ccc2nc(O)cc(C(=O)OCC(=O)c3ccccc3)c2c1
IC50 [13]: > 79.4 µM (inactive)
IC50 [14]: > 79.4 µM (inactive)
IC50 [15]: > 79.4 µM (inactive)

Cc1cccn2c(=O)c3cc(C(=O)NCc4ccco4)c(=N)n(C4CCCC4)c3nc12
EC50 [16]: > 32 µM (inactive)
IC50 [17]: > 32 µM (inactive)
IC50 [18]: 1.68 µM (active)
IC50 [19]: > 32 µM (inactive)
EC50 [20]: > 32 µM (inactive)
IC50 [21]: > 32 µM (inactive)
IC50 [22]: 407 nM (active)
EC50 [23]: > 32 µM (inactive)

N#Cc1ccccc1S(=O)(=O)n1c(N)nc2ccccc21
IC50 [24]: > 20 µM (inactive)
IC50 [25]: > 20 µM (inactive)
IC50 [26]: > 20 µM (inactive)
IC50 [27]: > 20 µM (inactive)

CCCc1ccc(C(=O)NC(=O)c2ccccc2O)cc1
IC50 [28]: 8.68 µM (active)
IC50 [29]: 3.97 µM (active)
EC50 [30]: > 3.32 µM (inactive)
IC50 [31]: 4.87 µM (active)
EC50 [32]: 14.7 µM (not active)
